Measurements taken from patent US20050014734A1 (Genovate Biotechnology Co., Ltd., priority 2003, published 2005).
“Also recorded” adds a separate entry of the source. Read-outs that look alike come from different tables or passages of the source.

Legend:
IL-10 = test: Serum IL-10 by ELISA in randomized, double-blind, placebo-controlled study in women with active SLE; type: in vivo, human
Description: (§1) Baseline prednisone (less than 10 mg/day) and other concomitant SLE medications were held constant. The serum levels of cytokines including IL-1, IL-2, interferon-γ, IL-4, and IL-10 were determined by ELISA. The mean change from baseline to 24 weeks of therapy was analyzed. See, below.
(§2) See, Chang et al., Arthritis Rheum., 2002, 46(11):2924-27. The subjects enrolled in the study were adult women with SLE according to American College of Rheumatology (ACR) criteria (see, e.g., Tan, et al., Arthritis Rheum., 1982, 25:1271-7) and who were receiving a prednisone dose (or its corticosteroid equivalent) of 1 to 10 mg/day at the time they entered the study. […]
(§3) Serum testosterone, estradiol and cytokine profiles were measured at baseline and at last visit (i.e., after 24 weeks). Different serum cytokines including […], IL-2, IFN-γ, IL-4, and […] in the subjects were measured using ELISA kits (R&D, Minneapolis, Minn.) according to the manufacturer's instructions.
(§4) Comparisons between groups were done through an independent t-test, while comparisons within groups were done through a paired t-test. All statistical tests were evaluated at a 0.05 level of significance.

IL-1β = test: Serum IL-1β by ELISA in the same SLE study; type: in vivo, human; conditions: after 24 weeks of 200 mg/day DHEA orally, mean ± SD, n = 15, before treatment 9.94 ± 8.92
Description: as §1, §2, §3, §4

estradiol = test: Hormone determination: serum estradiol in SLE study; type: in vivo, human; conditions: 200 mg/day DHEA, 24 weeks
Description: See, Chang et al., Arthritis Rheum., 2002, 46(11):2924-27. The subjects enrolled in the study were adult women with SLE according to American College of Rheumatology (ACR) criteria (see, e.g., Tan, et al., Arthritis Rheum., 1982, 25:1271-7) and who were receiving a prednisone dose (or its corticosteroid equivalent) of 1 to 10 mg/day at the time they entered the study. Subjects selected for the study had to have active SLE, as defined by a Systemic Lupus Activity Measure (SLAM) score of ≧7, see, e.g., Liang, et al., Arthritis Rheum., 1989, 32:1107-18, and a baseline Systemic Lupus Erythematosus Disease Activity Index (SLEDAI) score ≧2. See, Bombardier, et al., Arthritis Rheum., 1992, 35:630-40.
Subjects that were under treatment with dydroxychloroquine, azathioprine, methotrexate, or cyclophosphamide or a combination thereof, had to have been on a stable regimen with no change in dose and drug combination for at least 6 weeks prior to entry into the study. Subjects who were receiving androgens, immunoglobulins, cyclosporine A, or other immunosuppressive agents (except those noted) were excluded from the study.
as §3

[1] = test system: NZB/NZW mouse model of SLE; conditions: cited from earlier work
[2] = test system: human marrow and mononuclear cells; conditions: in vitro; cited from earlier work
Th2 cells = Th2 cells stimulated by retrovirus infection; cited from earlier work
[3] = test system: peripheral blood mononuclear cells (PBMCs) from adult male lupus patients; conditions: pre-incubation with DHEA, concanavalin A stimulated PBMCs; cited from earlier work
[4] = test system: patients with mild to moderate SLE; conditions: cited from earlier work
[5] = polymorph; cited from earlier work
[6] = oral administration; cited from earlier work
[7] = 200 mg/day for 12 months, 381 women with mild/moderate SLE
[8] = oral daily doses of 200 mg, mild to moderate SLE, van Vollenhoven et al.

SMILES	Effect on IL-10 level (in words) (IL-10; 200 mg/day DHEA for 24 weeks, women with SLE, from baseline)	IL-10 after treatment (IL-10; serum, last visit after 24 weeks of 200 mg/day DHEA orally, mean ± SD, n = 15, before treatment 9.21 ± 6.75, p=0.045 vs placebo, p=0.029 vs baseline)	IL-1β after treatment (IL-1β)	Estradiol change at last visit, mean (estradiol; baseline mean 123)	Estradiol change at last visit, median (estradiol; baseline median 104)	Median decrease in estradiol (estradiol; placebo 31.5)	Onset of disease and mortality [1]	Secretion of IL-6 [2]	Production of IL-6 and tumor necrosis factor alpha (Th2 cells)	IL-4 production [3]	Bone mineral density [4, 7]	SLE disease and symptoms [4, 7]	Prednisone reduction ([4]; 200 mg/day, women with active lupus, phase II/III, Petri et al. 2002)	Steroid-sparing effect and flares [4, 8]	Tolerability [4, 8]	Tolerability ([4]; women with lupus, Chang et al. 2002)	Stability [5]	Rate of absorption [6]
C[C@]12CC[C@H](O)CC1=CC[C@@H]1[C@@H]2CC[C@]2(C)C(=O)CC[C@@H]12 [DHEA, dehydroepiandrosterone]	significant reduction; also recorded: significant IL-10 suppression	1.89 ± 1.47 pg/mL	9.20 ± 6.49 pg/mL	-48 pg/mL	-39 pg/mL	39.3 pg/mL	significantly delayed onset of disease and a reduction in mortality	reduce secretion of IL-6	suppressed the production of cytokines IL-6 and tumor necrosis factor alpha	reduced the IL-4 production	prevented loss of bone mineral density in a significantly greater proportion of patients than placebo	improved or stabilized SLE disease and its symptoms without clinical deterioration	enabled prednisone reduction to physiologic levels in a significantly greater proportion of patients than placebo	may have steroid-sparing effects and reduce flares	well-tolerated	well-tolerated	–	–
C[C@]12CC[C@H](O)CC1=CC[C@@H]1[C@@H]2CC[C@]2(C)C(=O)CC[C@@H]12 [DHEA form II, dehydroepiandrosterone]	–	–	–	–	–	–	–	–	–	–	–	–	–	–	–	–	stable under typical ambient conditions	rapid rate of absorption (greater than the form I polymorph)
C[C@]12CC[C@H](O)CC1=CC[C@@H]1[C@@H]2CC[C@]2(C)C(=O)CC[C@@H]12 [DHEA form I, dehydroepiandrosterone]	–	–	–	–	–	–	–	–	–	–	–	–	–	–	–	–	highly stable	–
